Assays:
Test in all cases: MIC determination, isogenic E. coli strains
Type in all cases: cell-based
[1] = test system: Isogenic E. coli J58 strain carrying TEM-26; conditions: for Mimimum Inhibitory Concentrations, TEM-26: isogenic E. coli strain, CAMH broth, 20 μM Apo-Transferrin, 37° C., 18 hours; for MIC: Escherichia coli, 18 h, read-out: Mimimum Inhibitory Concentrations, TEM-26
Experimental: (§1) Sterile technique was used throughout these experiments. Suspensions of organisms were removed from storage (−80° C.) and partially thawed. Partially thawed organisms (1 μL) were inoculated into 3 mL sterile LB Broth in a sterile culture tube and capped, then cultured at 37° C. with shaking for 4-5 hours until the optical density at 600 nm (OD600) was greater than 0.1 on a single beam spectrophotometer.
(§2) The concentration of organisms was adjusted to 0.08-0.1 OD600 (0.5 McFarland units) by dilution with sterile cation-adjusted Meuller-Hinton (CAMH) broth. The suspensions were used within 30 minutes of preparation.
(§3) A stock solution was made of each test compound by measuring 6.4 mg of the compound on an analytical balance and dissolving it in DMSO (1 mL) to get a transparent solution. The solutions were stored at −20° C. and thawed prior to use.
(§4) Sterile CAMH broth (200 μL) containing 20 μM Apo-Transferrin was pipetted into the first row of 8 columns of a sterile, round-bottomed, transparent, 96-well microplate using an 8-channel pipette equipped with sterile tips. One hundred μL was pipetted into the wells of the remaining 11 rows.
(§5) With an 8-channel pipette equipped with sterile tips, 100 μL of the first row solution was transferred to the second row and mixed. The process was repeated for the second to third rows and continued through row 11. One hundred μL from row 11 was removed and discarded so that all 12 rows contained 100 μL. Row 12 contained no compound and rows 1-11 contained 64, 32, 16, 8, 4, 2, 1, 0.5, 0.25, 0.125, […] of a given compound.
(§6) Inoculant suspensions (0.5 μL) were added to the 12 wells of each column. The plates were then covered and incubated at 37° C. overnight for 18 hours.
(§7) For each organism the MIC was determined by identifying the transparent well with the lowest test compound concentration.
TEM-26 (Group 2be beta-lactamase, hydrolyzes extended spectrum cephalosporins and monobactams), [25];
(§8) The gene sequence for each beta-lactamase enzyme was synthesized and inserted into the pBC-SK(+) plasmid by GenScript, a commercial service. E. coli J53 was transformed with each plasmid via electroporation and resistant transformants were selected on agar plates containing 50 micrograms/mL ampicillin. The selected transformants were stored at −80 degrees C. in 20% glycerol.

[2] = test system: Isogenic E. coli J58 strain carrying SHV-1; conditions: for Mimimum Inhibitory Concentrations, SHV-1: isogenic E. coli strain, CAMH broth, 20 μM Apo-Transferrin, 37° C., 18 hours; for MIC: Escherichia coli, 18 h, read-out: Mimimum Inhibitory Concentrations, SHV-1
Experimental: as §1, §2, §3, §4, §5, §6, §7
SHV-1 (Class A, Group 2b beta-lactamase, hydrolyzes penicillins and early cephalosporins);
as §8

[3] = test system: Isogenic E. coli J58 strain carrying DHA-1; conditions: for Mimimum Inhibitory Concentrations, DHA-1: isogenic E. coli strain, CAMH broth, 20 μM Apo-Transferrin, 37° C., 18 hours; for MIC: Escherichia coli, 18 h, read-out: Mimimum Inhibitory Concentrations, DHA-1
Experimental: as §1, §2, §3, §4, §5, §6, §7, §8

E. coli J53 Alone = conditions: for Mimimum Inhibitory Concentrations, J53 Alone: CAMH broth, 20 μM Apo-Transferrin, 37° C., 18 hours; for MIC: Escherichia coli, J53ALONE, 18 h, read-out: Mimimum Inhibitory Concentrations, J53 Alone
Experimental: as §1, §2, §3, §4, §5, §6, §7, §8

[4] = test system: Isogenic E. coli J58 strain carrying IMP-1; conditions: for Mimimum Inhibitory Concentrations, IMP-1: isogenic E. coli strain, CAMH broth, 20 μM Apo-Transferrin, 37° C., 18 hours; for MIC: Escherichia coli, 18 h, read-out: Mimimum Inhibitory Concentrations, IMP-1; for MICs for an E. coli strain carrying the gene for carbapenemase IMP-1, in words: review of Tables 4-1 and 4-2
Experimental: as §1, §2, §3, §4, §5, §6, §7
IMP-1 (Group 3a carbapenemase, metallo-beta-Lactamase).
as §8

[5] = test system: Isogenic E. coli J58 strain carrying CTX-M-15; conditions: for Mimimum Inhibitory Concentrations, CTX-M-15: isogenic E. coli strain, CAMH broth, 20 μM Apo-Transferrin, 37° C., 18 hours; for MIC: Escherichia coli, 18 h, read-out: Mimimum Inhibitory Concentrations, CTX-M-15
Experimental: as §1, §2, §3, §4, §5, §6, §7
(§9) CTX-M-14 and CTX-M-15 (Class A, Group 2be beta-lactamases, hydrolyzes extended spectrum cephalosporins and monobactams);
as §8

[6] = test system: Isogenic E. coli J58 strain carrying CTX-M-14; conditions: for Mimimum Inhibitory Concentrations, CTX-M-14: isogenic E. coli strain, CAMH broth, 20 μM Apo-Transferrin, 37° C., 18 hours; for MIC: Escherichia coli, 18 h, read-out: Mimimum Inhibitory Concentrations, CTX-M-14
Experimental: as §1, §2, §3, §4, §5, §6, §7, §9, §8

[7] = test system: Isogenic E. coli J58 strain carrying VIM-2; conditions: for Mimimum Inhibitory Concentrations, VIM-2: isogenic E. coli strain, CAMH broth, 20 μM Apo-Transferrin, 37° C., 18 hours; for MIC: Escherichia coli, 18 h, read-out: Mimimum Inhibitory Concentrations, VIM-2
Experimental: as §1, §2, §3, §4, §5, §6, §7
VIM-2 (Group 3a carbapenemase, metallo-beta-lactamase); and
as §8

[8] = test system: Isogenic E. coli J58 strain carrying NDM-1; conditions: for Mimimum Inhibitory Concentrations, NDM-1: isogenic E. coli strain, CAMH broth, 20 μM Apo-Transferrin, 37° C., 18 hours; for MIC: Escherichia coli, 18 h, read-out: Mimimum Inhibitory Concentrations, NDM-1
Experimental: as §1, §2, §3, §4, §5, §6, §7
NDM-1 (Group 3a carbapenemase, broad spectrum divalent Zn^++ metallo-Beta-Lactamase);
as §8

[9] = test system: Isogenic E. coli J58 strain carrying KPC-3; conditions: for Mimimum Inhibitory Concentrations, KPC-3: isogenic E. coli strain, CAMH broth, 20 μM Apo-Transferrin, 37° C., 18 hours; for MIC: Escherichia coli, 18 h, read-out: Mimimum Inhibitory Concentrations, KPC-3
Experimental: as §1, §2, §3, §4, §5, §6, §7
(§10) KPC-2 and KPC-3 (Class A, Group 2f, carbapenemases);
as §8

[10] = test system: Isogenic E. coli J58 strain carrying KPC-2; conditions: for Mimimum Inhibitory Concentrations, KPC-2: isogenic E. coli strain, CAMH broth, 20 μM Apo-Transferrin, 37° C., 18 hours; for MIC: Escherichia coli, 18 h, read-out: Mimimum Inhibitory Concentrations, KPC-2
Experimental: as §1, §2, §3, §4, §5, §6, §7, §10, §8

## CO/N=C(\C(=O)N[C@@H]1C(=O)N2C(C(=O)O)=C(C=Cc3ccc(C[n+]4ccc(OC)c(OC)c4)cc3[N+](=O)[O-])CS[C@H]12)c1csc(N)n1 (mixture of isomers) [Compound 392, 1-(4-((E/Z)-2-((6R,7R)-7-((Z)-2-(2-aminothiazol-4-yl)-2-(methoxyimino)acetamido)-2-carboxy-8-oxo-5-thia-1-azabicyclo[4.2.0]oct-2-en-3-yl)vinyl)-3-nitrobenzyl)-3,4-dimethoxypyridin-1-ium]
[1]
  Mimimum Inhibitory Concentrations, TEM-26: 32 microgram/mL
[2]
  Mimimum Inhibitory Concentrations, SHV-1: >64 microgram/mL
[3]
  Mimimum Inhibitory Concentrations, DHA-1: >64 microgram/mL
E. coli J53 Alone; Table 4-1
  Mimimum Inhibitory Concentrations, J53 Alone: 64 microgram/mL
E. coli J53 Alone; Table 4-2
  Mimimum Inhibitory Concentrations, J53 Alone: 64 microgram/mL
[4]
  Mimimum Inhibitory Concentrations, IMP-1: >64 microgram/mL
[5]
  Mimimum Inhibitory Concentrations, CTX-M-15: >64 microgram/mL
[6]
  Mimimum Inhibitory Concentrations, CTX-M-14: >64 microgram/mL
[7]
  Mimimum Inhibitory Concentrations, VIM-2: >64 microgram/mL
[8]
  Mimimum Inhibitory Concentrations, NDM-1: >64 microgram/mL
[9]
  Mimimum Inhibitory Concentrations, KPC-3: >64 microgram/mL
[10]
  Mimimum Inhibitory Concentrations, KPC-2: >64 microgram/mL

## COc1cc[n+](Cc2ccc(C=CC3=C(C(=O)O)N4C(=O)[C@@H](NC(=O)/C(=N\OC(C)(C)C(=O)O)c5csc(N)n5)[C@H]4SC3)cc2)cc1OC (mixture of isomers) [Compound 402, 1-(4-((E/Z)-2-((6R,7R)-7-((Z)-2-(2-aminothiazol-4-yl)-2-(((2-carboxypropan-2-yl)oxy)imino)acetamido)-2-carboxy-8-oxo-5-thia-1-azabicyclo[4.2.0]oct-2-en-3-yl)vinyl)benzyl)-3,4-dimethoxypyridin-1-ium]
[1]
  MIC: 4 µg/mL
[2]
  MIC: 2 µg/mL
[3]
  MIC: 1 µg/mL
E. coli J53 Alone
  MIC: 0.5 µg/mL
E. coli J53 Alone; Table 4-2
  Mimimum Inhibitory Concentrations, J53 Alone: 0.5 microgram/mL
[4]
  MIC: > 64 µg/mL
[5]
  MIC: > 64 µg/mL
[6]
  MIC: 4 µg/mL
[7]
  MIC: 4 µg/mL
[8]
  MIC: > 64 µg/mL
[9]
  MIC: 16 µg/mL
[10]
  MIC: 64 µg/mL

## Cn1c[n+](Cc2ccc(C=CC3=C(C(=O)O)N4C(=O)[C@@H](NC(=O)/C(=N\OC(C)(C)C(=O)O)c5csc(N)n5)[C@H]4SC3)cc2)c2cc(O)c(O)cc21 (mixture of isomers) [Compound 415, 3-(4-((E/Z)-2-((6R,7R)-7-((Z)-2-(2-aminothiazol-4-yl)-2-(((2-carboxypropan-2-yl)oxy)imino)acetamido)-2-carboxy-8-oxo-5-thia-1-azabicyclo[4.2.0]oct-2-en-3-yl)vinyl)benzyl)-5,6-dihydroxy-1-methyl-1H-benzo[d]imidazol-3-ium]
[1]
  MIC: 1 µg/mL
[2]
  MIC: 1 µg/mL
[3]
  MIC: 0.5 µg/mL
E. coli J53 Alone
  MIC: 0.5 µg/mL
E. coli J53 Alone; Table 4-2
  Mimimum Inhibitory Concentrations, J53 Alone: 0.5 microgram/mL
[4]
  MIC: 16 µg/mL
[5]
  MIC: 1 µg/mL
[6]
  MIC: 2 µg/mL
[7]
  MIC: 1 µg/mL
[8]
  MIC: > 64 µg/mL
[9]
  MIC: 8 µg/mL
[10]
  MIC: 16 µg/mL

## CC(C)(O/N=C(\C(=O)N[C@@H]1C(=O)N2C(C(=O)O)=C(C=Cc3ccc(C[N+]4(C)CCc5cc(O)c(O)cc5C4)cc3)CS[C@H]12)c1nsc(N)n1)C(=O)O (mixture of isomers) [Compound 437, 2-(4-((E/Z)-2-((6R,7R)-7-((Z)-2-(5-amino-1,2,4-thiadiazol-3-yl)-2-(((2-carboxypropan-2-yl)oxy)imino)acetamido)-2-carboxy-8-oxo-5-thia-1-azabicyclo[4.2.0]oct-2-en-3-yl)vinyl)benzyl)-6,7-dihydroxy-2-methyl-1,2,3,4-tetrahydroisoquinolin-2-ium]
[1]
  Mimimum Inhibitory Concentrations, TEM-26: 1 microgram/mL
[2]
  Mimimum Inhibitory Concentrations, SHV-1: 2 microgram/mL
[3]
  Mimimum Inhibitory Concentrations, DHA-1: 0.5 microgram/mL
E. coli J53 Alone; Table 4-1
  Mimimum Inhibitory Concentrations, J53 Alone: 0.25 microgram/mL
E. coli J53 Alone; Table 4-2
  Mimimum Inhibitory Concentrations, J53 Alone: 0.25 microgram/mL
[4]
  Mimimum Inhibitory Concentrations, IMP-1: 0.13 microgram/mL
  MICs for an E. coli strain carrying the gene for carbapenemase IMP-1, in words: low microgram/mL MICs
[5]
  Mimimum Inhibitory Concentrations, CTX-M-15: 0.5 microgram/mL
[6]
  Mimimum Inhibitory Concentrations, CTX-M-14: 4 microgram/mL
[7]
  Mimimum Inhibitory Concentrations, VIM-2: 1 microgram/mL
[8]
  Mimimum Inhibitory Concentrations, NDM-1: >64 microgram/mL
[9]
  Mimimum Inhibitory Concentrations, KPC-3: 2 microgram/mL
[10]
  Mimimum Inhibitory Concentrations, KPC-2: 16 microgram/mL

## CC(C)(O/N=C(\C(=O)N[C@@H]1C(=O)N2C(C(=O)O)=C(C=Cc3ccc(C[N+](C)(C)CCc4ccc(O)c(O)c4)cc3)CS[C@H]12)c1csc(N)n1)C(=O)O (mixture of isomers) [Compound 440, N-(4-((E/Z)-2-((6R,7R)-7-((Z)-2-(2-aminothiazol-4-yl)-2-(((2-carboxypropan-2-yl)oxy)imino)acetamido)-2-carboxy-8-oxo-5-thia-1-azabicyclo[4.2.0]oct-2-en-3-yl)vinyl)benzyl)-2-(3,4-dihydroxyphenyl)-N,N-dimethylethan-1-aminium]
[1]
  MIC: 1 µg/mL
[2]
  MIC: 1 µg/mL
[3]
  MIC: 0.25 µg/mL
E. coli J53 Alone
  MIC: 0.25 µg/mL
E. coli J53 Alone; Table 4-2
  Mimimum Inhibitory Concentrations, J53 Alone: 0.25 microgram/mL
[4]
  MIC: 0.13 µg/mL
  MICs for an E. coli strain carrying the gene for carbapenemase IMP-1, in words: low microgram/mL MICs
[5]
  MIC: 0.25 µg/mL
[6]
  MIC: 2 µg/mL
[7]
  MIC: 0.25 µg/mL
[8]
  MIC: > 64 µg/mL
[9]
  MIC: 4 µg/mL
[10]
  MIC: 16 µg/mL

## CC(C)(O/N=C(\C(=O)N[C@@H]1C(=O)N2C(C(=O)O)=C(C=Cc3ccc(C[N+]4(C)CCc5c(ccc(O)c5O)C4)cc3)CS[C@H]12)c1csc(N)n1)C(=O)O (mixture of isomers) [Compound 441, 2-(4-((E/Z)-2-((6R,7R)-7-((Z)-2-(2-aminothiazol-4-yl)-2-(((2-carboxypropan-2-yl)oxy)imino)acetamido)-2-carboxy-8-oxo-5-thia-1-azabicyclo[4.2.0]oct-2-en-3-yl)vinyl)benzyl)-5,6-dihydroxy-2-methyl-1,2,3,4-tetrahydroisoquinolin-2-ium]
[1]
  MIC: 1 µg/mL
[2]
  MIC: 1 µg/mL
[3]
  MIC: 0.5 µg/mL
E. coli J53 Alone
  MIC: 0.25 µg/mL
E. coli J53 Alone; Table 4-2
  Mimimum Inhibitory Concentrations, J53 Alone: 0.25 microgram/mL
[4]
  MIC: 1 µg/mL
[5]
  MIC: 0.5 µg/mL
[6]
  MIC: 1 µg/mL
[7]
  MIC: 0.25 µg/mL
[8]
  MIC: > 64 µg/mL
[9]
  MIC: 1 µg/mL
[10]
  MIC: 4 µg/mL

— patent publication US20190100534A1, “Cephem Compounds with Latent Reactive Groups” (Gladius Pharmaceuticals, Inc., priority 2017, published 2019)
